Where two headings read alike, the source gives them in different places.
Key:
[1] = target: CYP2D6 (Homo sapiens (Human), UniProt P10635); test: CYP inhibition test, dextromethorphan O-demethylation; assay type: in vitro ADME; settings: pooled human hepatic microsome, 5 μmol/L dextromethorphan
Description: (§1) Using commercially available pooled human hepatic microsome, and employing, as markers, 7-ethoxyresorufin O-deethylation (CYP1A2), tolbutamide methyl-hydroxylation (CYP2C9), mephenyloin 4′-hydroxylation (CYP2C19), dextromethorphan O-demethylation (CYP2D6), and terfenedine hydroxylation as typical substrate metabolism reactions of human main five CYP enzyme forms (CYP1A2, 2C9, 2C19, 2D6, 3A4), an inhibitory degree of each metabolite production amount by a compound of the present compound was assessed.
(§2) The reaction conditions were as follows: substrate, 0.5 μmol/L ethoxyresorufin (CYP1A2), 100 μmol/L tolbutamide (CYP2C9), 50 μmol/L S-mephenyloin (CYP2C19), 5 μmol/L dextromethorphan (CYP2D6), 1 μmol/L terfenedine (CYP3A4); reaction time, 15 minutes; reaction temperature, 37° C.; enzyme, pooled human hepatic microsome 0.2 mg protein/mL; concentration of a compound of the present invention, 1, 5, 10, 20 μmol/L (four points).
(§3) Each five kinds of substrates, human hepatic microsome, or a compound of the present invention in 50 mM Hepes buffer as a reaction mixture was added to a 96-well plate at the composition as described above, NADPH, as a cofactor was added to initiate metabolism reactions as markers and. After the incubation at 37° C. for 15 minutes, a methanol/acetonitrile=1/1 (v/v) solution was added to stop the reaction. After the centrifugation at 3000 rpm for 15 minutes, resorufin (CYP1A2 metabolite) in the supernatant was quantified by a fluorescent multilabel counter and tolbutamide hydroxide (CYP2C9 metabolite), mephenyloin 4′ hydroxide (CYP2C19 metabolite), dextrorphan (CYP2D6 metabolite), and terfenadine alcohol (CYP3A4 metabolite) were quantified by LC/MS/MS.

[2] = target: T1, CRTH2 (Homo sapiens (Human), UniProt Q9Y5Y4); test: CRTH2 inhibitory activity in human eosinophil (PGD2 induced eosinophil shape change); assay type: cell-based; settings: human peripheral blood, 40 nM PGD2, forward scatter; read-out: IC50, inhibition of PGD2 induced eosinophil shape change
T1 sequence (Q9Y5Y4 whole entry): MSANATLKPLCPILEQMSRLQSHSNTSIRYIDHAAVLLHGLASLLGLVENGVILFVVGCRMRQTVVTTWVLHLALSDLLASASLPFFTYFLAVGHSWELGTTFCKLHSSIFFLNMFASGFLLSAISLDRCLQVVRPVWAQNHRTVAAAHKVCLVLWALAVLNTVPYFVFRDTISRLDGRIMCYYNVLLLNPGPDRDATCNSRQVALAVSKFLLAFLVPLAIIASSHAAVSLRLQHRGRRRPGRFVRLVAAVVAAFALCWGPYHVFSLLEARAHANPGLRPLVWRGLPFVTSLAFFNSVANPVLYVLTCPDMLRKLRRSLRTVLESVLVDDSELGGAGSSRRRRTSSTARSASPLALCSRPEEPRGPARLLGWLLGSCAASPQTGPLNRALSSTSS
Protocol: CRTH2 inhibitory activity in human eosinophil was determined as inhibitory activity of PGD2 induced eosinophil shape change.
Human peripheral blood was mixed with compounds of the present invention at 37° C. After 5 min, the blood was treated with 40 nM of PGD2 for 10 min and fixed. The blood was hemolyzed and centrifuged. Blood cells were resuspended in PBS and measured forward scatter (FS) using flow cytometer (FACSAria). Inhibition ratio was defined by comparing FS with and without compound, and IC50 for each compound was calculated from inhibitory curve.

[3] = target: CYP3A4 enzyme expressed in Escherichia coli (Homo sapiens (Human), UniProt P08684); test: CYP3A4 fluorescent MBI test; assay type: in vitro ADME; settings: pre-reaction time 0 or 30 minutes, substrate 7-BFC; read-out: CYP3A4 MBI, difference between IC50 values with and without preincubation
CYP3A4 enzyme expressed in Escherichia coli, sequence (P08684 whole entry): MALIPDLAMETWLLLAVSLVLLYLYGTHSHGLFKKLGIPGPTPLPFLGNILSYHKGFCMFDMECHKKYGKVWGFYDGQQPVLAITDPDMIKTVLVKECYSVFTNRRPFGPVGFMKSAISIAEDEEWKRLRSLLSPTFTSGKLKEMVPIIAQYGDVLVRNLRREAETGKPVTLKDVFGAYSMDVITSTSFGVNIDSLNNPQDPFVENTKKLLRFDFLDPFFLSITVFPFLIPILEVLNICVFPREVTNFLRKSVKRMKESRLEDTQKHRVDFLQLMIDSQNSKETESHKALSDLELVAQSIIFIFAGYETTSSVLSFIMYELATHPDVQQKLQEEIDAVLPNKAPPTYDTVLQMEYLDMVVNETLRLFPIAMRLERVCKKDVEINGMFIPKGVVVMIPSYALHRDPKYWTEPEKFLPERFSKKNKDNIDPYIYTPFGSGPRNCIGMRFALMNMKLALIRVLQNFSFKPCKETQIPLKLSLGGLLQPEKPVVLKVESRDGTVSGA
Protocol: The CYP3A4 fluorescent MBI test is a test of investigating enhancement of CYP3A4 inhibition of a compound by a metabolism reaction, and the test was performed using, as CYP3A4 enzyme expressed in Escherichia coli and employing, as an index, a reaction in which 7-benzyloxytrifluoromethylcoumarin (7-BFC) is debenzylated by the CYP3A4 enzyme to produce a metabolite, 7-hydroxytrifluoromethylcoumarin (HFC) emitting fluorescent light.
The reaction conditions were as follows: substrate, 5.6 μmol/L 7-BFC; pre-reaction time, 0 or 30 minutes; reaction time, 15 minutes; reaction temperature, 25° C. (room temperature); CYP3A4 content (expressed in Escherichia coli), at pre-reaction […], at reaction […] (at 10-fold dilution); concentration of a compound of the present, 0.625, 1.25, 2.5, 5, 10, 20 μmol/L (six points).
An enzyme in a K-Pi buffer (pH 7.4) and a compound solution of the present invention as a pre-reaction mixture were added to a 96-well plate at the composition of the pre-reaction, a part of it was transferred to another 96-well plate so that it was 1/10 diluted by a substrate in a K-Pi buffer, NADPH as a co-factor was added to initiate a reaction as an index (without preincubation) and, after a predetermined time of a reaction, acetonitrile/0.5 mol/L Tris(trishydroxyaminomethane)=4/1 (V/V) was added to stop the reaction. In addition, NADPH was added to a remaining preincubation solution to initiate a preincubation (with preincubation) and, after a predetermined time of a preincubation, a part was transferred to another plate so that it was 1/10 diluted with a substrate and a K-Pi buffer to initiate a reaction as an index. After a predetermined time of a reaction, acetonitrile/0.5 mol/L Tris(trishydroxyaminomethane)=4/1 (V/V) was added to stop the reaction. For the plate on which each index reaction had been performed, a fluorescent value of 7-HFC which is a metabolite was measured with a fluorescent plate reader. (Ex=420 nm, Em=535 nm).

[4] = target: CYP2C9 (Homo sapiens (Human), UniProt P11712); test: CYP inhibition test, tolbutamide methyl-hydroxylation; assay type: in vitro ADME; settings: pooled human hepatic microsome, 100 μmol/L tolbutamide
CYP2C9, sequence (P11712 whole entry): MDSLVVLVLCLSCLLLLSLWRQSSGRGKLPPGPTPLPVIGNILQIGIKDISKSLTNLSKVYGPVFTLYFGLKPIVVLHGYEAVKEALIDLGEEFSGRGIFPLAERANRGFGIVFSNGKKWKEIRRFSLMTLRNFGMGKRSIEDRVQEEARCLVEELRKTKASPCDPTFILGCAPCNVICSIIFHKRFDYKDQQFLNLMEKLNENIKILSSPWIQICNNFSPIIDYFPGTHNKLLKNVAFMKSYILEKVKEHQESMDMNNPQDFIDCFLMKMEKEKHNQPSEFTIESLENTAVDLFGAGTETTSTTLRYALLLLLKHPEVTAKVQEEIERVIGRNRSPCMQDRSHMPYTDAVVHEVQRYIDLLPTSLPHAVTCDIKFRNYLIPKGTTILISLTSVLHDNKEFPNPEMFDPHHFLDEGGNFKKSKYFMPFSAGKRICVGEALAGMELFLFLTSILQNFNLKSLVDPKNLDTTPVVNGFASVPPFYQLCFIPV
Description: as §1, §2, §3

[5] = target: T1, CRTH2; test: CRTH2 receptor binding inhibitory activity ([3H]-PGD2 displacement, membranes of CRTH2-expressing K562 cell); settings: [3H]-PGD2 displacement, membrane of CRTH2-expressing K562 cell, read-out: Ki
Method in brief: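 CRTH2-expressing K562 membranes (20 μg/well) in 50 mM Tris/HCl pH 7.4 with 10 mM MgCl2 were incubated with [3H]-PGD2 for 60 min at room temperature, then filtered.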

[6] = target: CYP1A2 (Homo sapiens (Human), UniProt P05177); test: CYP inhibition test, 7-ethoxyresorufin O-deethylation; assay type: in vitro ADME; settings: pooled human hepatic microsome, 0.5 μmol/L ethoxyresorufin
CYP1A2, sequence (P05177 whole entry): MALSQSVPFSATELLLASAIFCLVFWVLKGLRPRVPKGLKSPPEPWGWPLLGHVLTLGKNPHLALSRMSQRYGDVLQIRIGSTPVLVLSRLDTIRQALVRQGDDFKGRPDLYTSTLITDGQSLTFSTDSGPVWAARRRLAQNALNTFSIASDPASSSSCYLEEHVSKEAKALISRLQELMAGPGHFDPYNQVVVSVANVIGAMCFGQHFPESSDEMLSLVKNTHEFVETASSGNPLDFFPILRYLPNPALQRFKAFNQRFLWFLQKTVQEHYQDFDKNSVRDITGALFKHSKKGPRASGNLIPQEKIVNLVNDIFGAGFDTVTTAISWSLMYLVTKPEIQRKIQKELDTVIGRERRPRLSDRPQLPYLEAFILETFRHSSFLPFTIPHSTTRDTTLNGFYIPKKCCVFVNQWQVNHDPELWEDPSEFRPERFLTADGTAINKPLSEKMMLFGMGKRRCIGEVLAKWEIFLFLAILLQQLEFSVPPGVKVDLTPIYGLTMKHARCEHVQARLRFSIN
Description: as §1, §2, §3

[7] = target: CYP3A4 (Homo sapiens (Human), UniProt P08684); test: CYP inhibition test, terfenedine hydroxylation; assay type: in vitro ADME; settings: pooled human hepatic microsome, 1 μmol/L terfenedine
CYP3A4, sequence (P08684 whole entry): as the sequence (P08684 whole entry) above
Description: as §1, §2, §3

[8] = Solubility test (1% DMSO addition, artificial intestinal juice pH 6.8); assay type: physicochemical; settings: fassgf or other biorelevant, kinetic from dmso stock, artificial intestinal juice pH 6.8, 16 hours at 25° C.
Protocol: A 10 mmol/L solution of the compound of the present invention is prepared with DMSO, and 6 μL of the compound solution is added to 594 μL of an artificial intestinal juice (water and 118 mL of 0.2 mol/L NaOH reagent are added to 250 mL of 0.2 mol/L potassium dihydrogen phosphate reagent to reach 1000 mL) with a pH of 6.8. The mixture is left standing for 16 hours at 25° C., and the mixture is vacuum-filtered. The filtrate is two-fold diluted with methanol/water=1/1 (V/V), and the compound concentration in the filtrate is measured with HPLC or LC/MS/MS by the absolute calibration method.

[9] = CRTH2 receptor binding, categorized AAAA/AAA

CYP2D6, sequence (P10635 whole entry): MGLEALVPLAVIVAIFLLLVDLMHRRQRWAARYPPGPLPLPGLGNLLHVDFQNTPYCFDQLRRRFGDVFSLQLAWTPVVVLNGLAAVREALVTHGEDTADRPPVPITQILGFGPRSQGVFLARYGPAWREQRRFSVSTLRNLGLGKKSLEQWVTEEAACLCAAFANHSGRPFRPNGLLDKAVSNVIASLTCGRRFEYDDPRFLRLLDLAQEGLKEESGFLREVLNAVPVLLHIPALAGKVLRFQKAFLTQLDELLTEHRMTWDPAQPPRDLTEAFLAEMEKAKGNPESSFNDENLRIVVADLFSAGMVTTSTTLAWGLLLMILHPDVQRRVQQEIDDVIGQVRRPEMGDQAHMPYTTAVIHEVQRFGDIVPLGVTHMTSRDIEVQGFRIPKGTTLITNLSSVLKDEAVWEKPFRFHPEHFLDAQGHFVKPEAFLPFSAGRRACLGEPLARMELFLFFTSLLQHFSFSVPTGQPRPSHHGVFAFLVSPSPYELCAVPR

| IC50 [1] | IC50 [2] | difference in IC50 with vs without preincubation [3] | IC50 [4] | Ki [5, 9] | IC50 [6] | IC50 [7] | solubility at 16 h [8] | Ki [5] | Structure (SMILES) |
| --- | --- | --- | --- | --- | --- | --- | --- | --- | --- |
| > 20 µM | 0.034 µM | ≤ 3 µM | > 20 µM | < 0.1 µM | > 20 µM | > 20 µM | > 50 µM |  | CC(C)Oc1ccc(S(=O)(=O)N2C[C@H](n3nc(CC(=O)O)c4ccc(F)cc43)C[C@H]2C#N)cc1 [Compound I-7] |
| > 20 µM | 0.015 µM | ≤ 3 µM | > 20 µM |  | > 20 µM | > 20 µM | > 50 µM | 0.0024 µM | CC(C)Oc1ccc(S(=O)(=O)N2C[C@@H](C)[C@@H](n3nc(CC(=O)O)c4ccc(F)cc43)C2)cc1 [Compound I-37] |
| > 20 µM |  | ≤ 3 µM | > 20 µM | < 0.1 µM | > 20 µM | > 20 µM | > 50 µM | 0.0051 µM | CC(C)Oc1ccc(S(=O)(=O)N2C[C@@H](C)[C@@H](n3nc(CC(=O)O)c4ccc(F)cc43)C2)c(F)c1 [Compound I-52] |
| > 20 µM |  | ≤ 3 µM | > 20 µM | < 0.1 µM | > 20 µM | > 20 µM | > 50 µM | 0.0038 µM | CC(C)Oc1ccc(S(=O)(=O)N2C[C@@H](C)[C@@H](n3nc(CC(=O)O)c4ccc(F)cc43)C2)cn1 [Compound I-57] |
| > 20 µM | 0.27 µM | ≤ 3 µM | > 20 µM | < 0.1 µM | > 20 µM | > 20 µM | > 50 µM | 0.037 µM | CCOc1ccc(S(=O)(=O)N2C[C@@H](C)[C@@H](n3nc(CC(=O)O)c4ccccc43)C2)cn1 [Compound I-96] |
